Results on 1 compound are retold here after US20130296427A1, “NERAMEXANE FOR THE TREATMENT OR PREVENTION OF TINNITUS RELATED WITH STRESS OR ACUTE HEARING LOSS” (MERZ PHARMA GmbH & CO. KGaA, priority 2011, published 2013).

This assay relates to subjects with tinnitus caused by acute hearing loss, stress and other reasons. The assay is described as follows: Two double-blind, randomized, placebo-controlled 17-week studies of neramexane mesylate in tinnitus; change in TBF-12 total score. It counts as in vivo, human. To be noted: FAS-LOCF; for Change in the TBF-12 total score from baseline to Week 17/EOT, mean (SD): neramexane mesylate 50 or 75 mg/d, 17 weeks; for LSmean [ner − plac], estimated difference Neramexane − Placebo in change of TBF-12 total score, adjusted for covariates from ANCOVA: Week 17/EOT, negative = superior to placebo. As for the experimental part:
The objective was to assess the efficacy of neramexane as a treatment for tinnitus. The primary objectives of these two independent 17 weeks double-blind, randomized placebo-controlled studies were to compare the efficacy, tolerability and safety of neramexane mesylate at two different, weight-adapted dosages (50 or 75 mg/d) with placebo in subjects with tinnitus caused acute hearing loss, stress and other reasons.
In two independent, double-blind, multicenter, randomized, placebo-controlled, parallel-group studies, the efficacy of neramexane in subjects suffering from tinnitus caused by acute hearing loss, stress and other reasons were assessed.
In both studies, subjects were treated for 17 weeks with neramexane or placebo including a four-resp. five-week up-titration period, depending on study drug dose.
Patients with a target daily dose of 50 mg neramexane mesylate (<90 kg body weight) were to reach steady state after four weeks, patients with a target total daily dose of 75 mg neramexane mesylate 90 kg body weight) were to reach steady state after five weeks of treatment. For patients who experienced dose limiting adverse events with the 75 mg dose, the dosage was reduced by switching the patient to 50 mg/day. Patients unable to tolerate a minimum dosage of 50 mg/day discontinued.
Patients' eligibility for the studies was evaluated via a check of inclusion/exclusion criteria. The subject completed a Tinnitus-Beeinträchtigungs-Fragebogen (TBF-12=Tinnitus Handicap Inventory (THI-12)) (i.e., a 12-item modified and validated version (Greimel K V et al., Tinnitus-Beeinträchtigungs-Fragebogen (TBF-12). Manual. Frankfurt am Main: Swets & Zeitlinger B.V.; 2000) of the 25-item Tinnitus Handicap Inventory or THI (Newman C W, et al. Development of the Tinnitus Handicap Inventory. Arch Otolaryngol Head Neck Surg 1996; 122(2): 143-148; Newman C W, et al. Psychometric adequacy of the Tinnitus Handicap Inventory (THI) for evaluating treatment outcome. J Am Acad Audiol 1998; 9(2): 153-160.)). The TBF-12 items can be grouped in 2 factorial scores: an emotional-cognitive and a functional-communicational factor. At Visit 1 patients also completed a Tinnitus Rating Scale (TRS, Likert scores on Tinnitus Loudness, Tinnitus Impact on Life, and Tinnitus Annoyance), and the Hospital Anxiety and Depression Scale Audiology/psychoacoustic measurements were performed unless results from previous examinations performed no more than one year prior to Screening were available.
Neramexane mesylate immediate release tablets (12.5 mg and 25 mg, the manufacture thereof being disclosed in WO 2009/033649, whose respective content is incorporated herein by reference) and matching placebo tablets are administered as film coated tablets.
Primary Outcome • The change in TBF-12 total score from baseline (Visit 2) to the endpoint visit (Visit 7, i.e. Week 17 or end of treatment) was the primary efficacy endpoint in these studies.
All efficacy analyses were performed on the full analysis set (FAS) using the last-observation-carried-forward (LOCF) approach. For sensitivity purposes an analysis of the per-protocol set and of observed cases was performed additionally. All statistical tests used for testing the primary efficacy (confirmatory testing) and secondary efficacy criteria (exploratory), and all other statistical tests used for exploratory analyses were two-sided hypothesis tests performed at the 5% significance level. For all variables standard descriptive statistics were calculated.
Change from baseline (Visit 2) to Week 17 in TBF-12 total score was analyzed using an ANCOVA model with treatment group, gender and country as factors and baseline TBF-12 total score as covariate.

As to `CC1(C)CC(C)(C)CC(C)(N)C1` [Neramexane, 1-amino-1,3,3,5,5-pentamethylcyclohexane], the “Change in the TBF-12 total score from baseline to Week 17/EOT, mean (SD)” value is, setting by setting: (tinnitus caused by acute hearing loss, N=34) 34/−3.1 ± 5.0; (tinnitus caused by other reasons, N=323) 323/−2.4 ± 4.1; (tinnitus caused by stress, N=41) 41/−3.4 ± 4.2. Further, the “LSmean [ner − plac], estimated difference Neramexane − Placebo in change of TBF-12 total score, adjusted for covariates from ANCOVA” value reads like this: (tinnitus caused by acute hearing loss, P-value 0.0162) −3.9; (tinnitus caused by other reasons, P-value 0.5969) 0.2; (tinnitus caused by stress, P-value 0.0094) −2.3.
